{"source": "ChEMBL document CHEMBL1201862", "about": "“PubChem BioAssay data set” (2004)", "key": {"[1]": {"target": "Peroxisome proliferator-activated receptor gamma/Nuclear receptor coactivator 2 (Homo sapiens, UniProt P37231)", "type": "functional"}, "[2]": {"target": "Peroxisome proliferator-activated receptor gamma/Nuclear receptor coactivator 3 (Homo sapiens, UniProt P37231)", "type": "functional"}, "[3]": {"target": "Cytochrome P450 2D6 (Homo sapiens, UniProt P10635)", "sequence (P10635 whole entry)": "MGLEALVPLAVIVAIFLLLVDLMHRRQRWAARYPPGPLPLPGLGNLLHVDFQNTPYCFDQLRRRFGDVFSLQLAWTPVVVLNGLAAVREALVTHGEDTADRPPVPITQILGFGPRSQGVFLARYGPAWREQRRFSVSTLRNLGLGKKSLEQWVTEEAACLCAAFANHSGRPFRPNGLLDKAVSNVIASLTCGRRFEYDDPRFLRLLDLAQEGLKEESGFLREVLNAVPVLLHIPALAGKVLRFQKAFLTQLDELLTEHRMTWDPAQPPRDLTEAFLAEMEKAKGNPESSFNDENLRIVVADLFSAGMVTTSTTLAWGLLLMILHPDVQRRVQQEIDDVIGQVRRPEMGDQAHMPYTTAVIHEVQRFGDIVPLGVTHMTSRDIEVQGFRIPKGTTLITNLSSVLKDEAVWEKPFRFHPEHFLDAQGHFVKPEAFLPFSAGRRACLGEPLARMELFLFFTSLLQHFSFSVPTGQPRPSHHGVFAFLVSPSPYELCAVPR"}, "[4]": {"target": "Cytochrome P450 3A4 (Homo sapiens, UniProt P08684)", "sequence (P08684 whole entry)": "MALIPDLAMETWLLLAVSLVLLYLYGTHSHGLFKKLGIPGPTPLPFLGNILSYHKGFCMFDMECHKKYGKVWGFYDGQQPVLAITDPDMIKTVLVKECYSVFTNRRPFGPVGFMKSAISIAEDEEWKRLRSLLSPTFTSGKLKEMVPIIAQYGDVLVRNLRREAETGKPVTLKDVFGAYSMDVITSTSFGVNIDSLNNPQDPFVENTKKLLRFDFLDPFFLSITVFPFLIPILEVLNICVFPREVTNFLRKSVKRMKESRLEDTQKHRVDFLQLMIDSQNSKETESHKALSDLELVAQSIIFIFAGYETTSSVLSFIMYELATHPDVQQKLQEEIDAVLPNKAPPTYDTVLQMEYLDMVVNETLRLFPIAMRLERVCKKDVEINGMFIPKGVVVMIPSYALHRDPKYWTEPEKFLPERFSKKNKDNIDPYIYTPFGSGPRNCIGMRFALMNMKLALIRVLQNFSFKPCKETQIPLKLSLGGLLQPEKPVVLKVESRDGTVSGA"}, "[5]": {"target": "Cytochrome P450 2C9 (Homo sapiens, UniProt P11712)", "sequence (P11712 whole entry)": "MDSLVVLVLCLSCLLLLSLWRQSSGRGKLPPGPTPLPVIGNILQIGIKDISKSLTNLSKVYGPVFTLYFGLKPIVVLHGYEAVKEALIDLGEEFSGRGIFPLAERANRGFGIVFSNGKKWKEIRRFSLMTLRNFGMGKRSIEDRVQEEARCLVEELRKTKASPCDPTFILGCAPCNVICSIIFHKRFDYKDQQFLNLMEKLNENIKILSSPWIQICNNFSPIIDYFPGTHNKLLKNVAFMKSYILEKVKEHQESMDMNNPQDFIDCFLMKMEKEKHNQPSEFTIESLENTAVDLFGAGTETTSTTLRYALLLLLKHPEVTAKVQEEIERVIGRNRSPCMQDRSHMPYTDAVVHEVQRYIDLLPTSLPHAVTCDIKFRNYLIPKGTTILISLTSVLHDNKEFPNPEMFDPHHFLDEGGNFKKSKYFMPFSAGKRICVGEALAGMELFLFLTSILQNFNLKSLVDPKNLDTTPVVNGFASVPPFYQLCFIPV"}, "[6]": {"target": "Peroxisome proliferator-activated receptor gamma/Nuclear receptor coactivator 1 (Homo sapiens, UniProt P37231)", "sequence (P37231 whole entry)": "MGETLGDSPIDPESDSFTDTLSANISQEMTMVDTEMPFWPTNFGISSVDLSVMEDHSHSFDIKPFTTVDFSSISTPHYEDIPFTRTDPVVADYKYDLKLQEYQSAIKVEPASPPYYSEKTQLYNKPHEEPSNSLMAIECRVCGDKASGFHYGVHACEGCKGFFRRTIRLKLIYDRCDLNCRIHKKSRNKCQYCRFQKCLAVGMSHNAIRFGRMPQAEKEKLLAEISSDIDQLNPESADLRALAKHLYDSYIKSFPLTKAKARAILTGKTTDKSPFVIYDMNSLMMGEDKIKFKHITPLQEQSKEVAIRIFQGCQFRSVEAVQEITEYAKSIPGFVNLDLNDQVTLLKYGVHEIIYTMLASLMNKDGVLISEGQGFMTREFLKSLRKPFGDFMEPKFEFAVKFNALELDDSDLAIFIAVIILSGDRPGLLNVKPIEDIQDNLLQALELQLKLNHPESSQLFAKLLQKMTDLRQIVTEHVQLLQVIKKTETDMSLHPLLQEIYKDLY", "sequence (Q15788 whole entry, further chain)": "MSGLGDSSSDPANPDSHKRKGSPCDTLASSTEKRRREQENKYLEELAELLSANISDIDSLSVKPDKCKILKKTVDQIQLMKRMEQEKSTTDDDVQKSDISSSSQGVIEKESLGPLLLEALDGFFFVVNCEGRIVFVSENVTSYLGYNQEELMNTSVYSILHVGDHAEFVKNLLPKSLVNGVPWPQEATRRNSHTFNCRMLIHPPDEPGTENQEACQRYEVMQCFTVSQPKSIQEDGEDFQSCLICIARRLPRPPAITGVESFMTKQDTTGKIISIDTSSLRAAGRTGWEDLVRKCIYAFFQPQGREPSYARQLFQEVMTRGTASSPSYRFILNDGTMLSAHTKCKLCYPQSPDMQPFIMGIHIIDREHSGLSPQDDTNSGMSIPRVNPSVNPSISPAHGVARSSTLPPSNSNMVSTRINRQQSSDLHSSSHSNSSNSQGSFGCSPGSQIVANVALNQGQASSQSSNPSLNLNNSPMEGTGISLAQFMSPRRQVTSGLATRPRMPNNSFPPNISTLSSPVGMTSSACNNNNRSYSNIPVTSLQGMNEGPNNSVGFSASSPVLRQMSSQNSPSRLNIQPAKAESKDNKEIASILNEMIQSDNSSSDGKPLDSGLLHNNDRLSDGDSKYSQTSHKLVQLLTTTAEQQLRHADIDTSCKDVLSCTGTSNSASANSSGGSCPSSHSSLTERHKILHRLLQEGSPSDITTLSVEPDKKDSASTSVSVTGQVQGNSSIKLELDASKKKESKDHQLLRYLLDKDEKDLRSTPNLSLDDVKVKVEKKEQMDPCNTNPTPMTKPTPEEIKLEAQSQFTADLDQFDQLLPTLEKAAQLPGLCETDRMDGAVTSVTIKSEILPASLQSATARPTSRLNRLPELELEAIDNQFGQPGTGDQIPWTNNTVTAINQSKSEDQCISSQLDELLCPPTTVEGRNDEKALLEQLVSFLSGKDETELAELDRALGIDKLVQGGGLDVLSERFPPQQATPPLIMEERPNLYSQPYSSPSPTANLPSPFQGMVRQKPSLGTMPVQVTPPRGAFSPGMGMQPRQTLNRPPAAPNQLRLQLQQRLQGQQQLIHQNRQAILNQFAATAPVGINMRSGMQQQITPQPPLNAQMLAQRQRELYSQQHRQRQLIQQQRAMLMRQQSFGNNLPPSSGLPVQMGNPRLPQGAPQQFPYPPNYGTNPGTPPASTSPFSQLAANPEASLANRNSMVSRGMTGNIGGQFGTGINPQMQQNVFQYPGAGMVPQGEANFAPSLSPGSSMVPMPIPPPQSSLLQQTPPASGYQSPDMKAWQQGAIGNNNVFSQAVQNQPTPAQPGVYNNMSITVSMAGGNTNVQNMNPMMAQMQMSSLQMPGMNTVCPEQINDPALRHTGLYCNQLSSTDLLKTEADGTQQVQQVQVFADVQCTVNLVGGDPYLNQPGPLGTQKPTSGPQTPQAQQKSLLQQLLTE", "type": "functional"}, "[7]": {"target": "T1, Sentrin-specific protease 1 (Homo sapiens, UniProt Q9P0U3)", "T1 sequence (Q9P0U3 whole entry)": "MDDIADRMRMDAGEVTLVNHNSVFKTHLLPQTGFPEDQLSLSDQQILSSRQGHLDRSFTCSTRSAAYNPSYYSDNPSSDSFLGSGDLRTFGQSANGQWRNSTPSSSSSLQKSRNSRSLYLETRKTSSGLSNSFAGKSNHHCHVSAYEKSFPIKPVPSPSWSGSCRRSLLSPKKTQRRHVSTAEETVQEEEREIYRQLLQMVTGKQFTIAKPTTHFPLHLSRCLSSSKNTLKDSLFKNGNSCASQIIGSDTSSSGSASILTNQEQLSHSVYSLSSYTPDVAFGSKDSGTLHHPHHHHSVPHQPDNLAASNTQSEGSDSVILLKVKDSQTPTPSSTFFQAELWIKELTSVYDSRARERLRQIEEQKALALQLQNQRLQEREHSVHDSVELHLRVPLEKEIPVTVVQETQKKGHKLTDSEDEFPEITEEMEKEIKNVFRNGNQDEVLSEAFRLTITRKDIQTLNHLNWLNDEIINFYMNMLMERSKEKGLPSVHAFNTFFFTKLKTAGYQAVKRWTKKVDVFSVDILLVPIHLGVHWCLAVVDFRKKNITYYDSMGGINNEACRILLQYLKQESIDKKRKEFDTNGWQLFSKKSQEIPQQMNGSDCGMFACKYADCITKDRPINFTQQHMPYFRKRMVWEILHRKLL", "experiment": "potency of human SENP1 inhibitors, dose response, biochemical, kinetic FRET (AID 651697)", "type": "functional", "details": "read-out: IC50_Mean"}, "[8]": {"target": "Lysine-specific demethylase 4A (Homo sapiens, UniProt O75164)", "experiment": "JMJD2A histone demethylase inhibitors, dose response, selectivity assay for GASC-1 inhibitor project, biochemical, DELFIA europium, cherry-picked samples (AID 488840)"}, "[9]": {"target": "T1, Sentrin-specific protease 1", "experiment": "Dose response confirmation of small molecule inhibitors of the catalytic domain of the SUMO protease, SENP1 in a FRET assay.", "type": "functional", "details": "read-out: IC50_Mean"}, "[10]": {"target": "T2, Rac GTPase-activating protein 1 (Homo sapiens, UniProt Q9H0H5)", "T2 sequence (Q9H0H5 whole entry)": "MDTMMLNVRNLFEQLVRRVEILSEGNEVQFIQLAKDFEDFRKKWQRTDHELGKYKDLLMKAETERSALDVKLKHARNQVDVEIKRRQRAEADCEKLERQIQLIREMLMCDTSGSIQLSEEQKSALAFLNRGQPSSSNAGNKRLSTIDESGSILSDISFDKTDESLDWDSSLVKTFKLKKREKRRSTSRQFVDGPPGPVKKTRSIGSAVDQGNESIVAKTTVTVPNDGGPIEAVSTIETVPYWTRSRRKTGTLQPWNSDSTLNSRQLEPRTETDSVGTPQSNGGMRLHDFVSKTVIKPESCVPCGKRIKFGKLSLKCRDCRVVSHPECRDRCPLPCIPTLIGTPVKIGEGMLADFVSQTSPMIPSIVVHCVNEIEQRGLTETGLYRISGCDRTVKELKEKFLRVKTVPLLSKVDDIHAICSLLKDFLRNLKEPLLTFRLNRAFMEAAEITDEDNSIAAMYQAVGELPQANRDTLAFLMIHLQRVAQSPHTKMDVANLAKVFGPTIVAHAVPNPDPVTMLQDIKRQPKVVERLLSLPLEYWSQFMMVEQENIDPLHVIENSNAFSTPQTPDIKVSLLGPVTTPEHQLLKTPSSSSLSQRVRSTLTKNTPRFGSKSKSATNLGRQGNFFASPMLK", "experiment": "MgcRacGAP GTPase-activating activity inhibitors, confirmation, biochemical, ADP Hunter fluorescence, primary and confirmatory (AID 624330)", "type": "functional"}, "[11]": {"target": "Lysine-specific demethylase 4C (Homo sapiens, UniProt Q9H3R0)", "sequence (Q9H3R0 whole entry)": "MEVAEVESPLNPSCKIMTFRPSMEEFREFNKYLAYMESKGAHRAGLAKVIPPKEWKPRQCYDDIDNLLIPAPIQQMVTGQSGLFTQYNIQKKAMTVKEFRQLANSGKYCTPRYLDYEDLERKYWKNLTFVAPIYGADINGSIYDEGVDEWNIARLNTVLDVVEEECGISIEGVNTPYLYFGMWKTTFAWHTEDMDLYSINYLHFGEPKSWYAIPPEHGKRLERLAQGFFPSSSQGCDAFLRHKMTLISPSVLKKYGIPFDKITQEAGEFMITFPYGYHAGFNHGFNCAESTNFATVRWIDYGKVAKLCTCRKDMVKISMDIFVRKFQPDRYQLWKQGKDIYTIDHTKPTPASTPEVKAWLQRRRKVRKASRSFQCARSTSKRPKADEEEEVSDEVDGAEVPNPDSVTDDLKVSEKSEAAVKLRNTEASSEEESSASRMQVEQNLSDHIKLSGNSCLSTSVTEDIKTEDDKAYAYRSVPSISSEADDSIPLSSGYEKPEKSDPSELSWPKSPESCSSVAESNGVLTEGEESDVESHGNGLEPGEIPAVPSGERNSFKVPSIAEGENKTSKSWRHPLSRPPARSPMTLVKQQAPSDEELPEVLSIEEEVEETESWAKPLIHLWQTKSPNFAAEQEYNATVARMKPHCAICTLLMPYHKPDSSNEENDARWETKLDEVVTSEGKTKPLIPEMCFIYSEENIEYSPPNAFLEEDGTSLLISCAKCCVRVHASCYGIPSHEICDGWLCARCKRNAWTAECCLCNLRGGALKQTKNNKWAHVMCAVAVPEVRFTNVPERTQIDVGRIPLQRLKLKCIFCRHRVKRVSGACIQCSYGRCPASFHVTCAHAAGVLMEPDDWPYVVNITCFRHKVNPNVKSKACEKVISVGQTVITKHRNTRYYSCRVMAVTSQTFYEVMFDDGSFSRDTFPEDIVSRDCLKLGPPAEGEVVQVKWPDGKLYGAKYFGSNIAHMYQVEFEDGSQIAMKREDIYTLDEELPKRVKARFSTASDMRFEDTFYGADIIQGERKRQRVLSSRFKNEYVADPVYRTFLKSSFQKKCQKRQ", "experiment": "GASC-1 (JMJD2C) histone demethylase inhibitors, dose response, biochemical, DELFIA europium, cherry-picked samples (AID 488835)", "type": "functional"}, "[12]": {"target": "Dual specificity tyrosine-phosphorylation-regulated kinase 1A (Rattus norvegicus, UniProt Q63470)", "type": "biochemical, Homo sapiens"}, "[13]": {"target": "T3, Hexokinase-1 (Homo sapiens, UniProt P19367)", "T3 sequence (P19367 whole entry)": "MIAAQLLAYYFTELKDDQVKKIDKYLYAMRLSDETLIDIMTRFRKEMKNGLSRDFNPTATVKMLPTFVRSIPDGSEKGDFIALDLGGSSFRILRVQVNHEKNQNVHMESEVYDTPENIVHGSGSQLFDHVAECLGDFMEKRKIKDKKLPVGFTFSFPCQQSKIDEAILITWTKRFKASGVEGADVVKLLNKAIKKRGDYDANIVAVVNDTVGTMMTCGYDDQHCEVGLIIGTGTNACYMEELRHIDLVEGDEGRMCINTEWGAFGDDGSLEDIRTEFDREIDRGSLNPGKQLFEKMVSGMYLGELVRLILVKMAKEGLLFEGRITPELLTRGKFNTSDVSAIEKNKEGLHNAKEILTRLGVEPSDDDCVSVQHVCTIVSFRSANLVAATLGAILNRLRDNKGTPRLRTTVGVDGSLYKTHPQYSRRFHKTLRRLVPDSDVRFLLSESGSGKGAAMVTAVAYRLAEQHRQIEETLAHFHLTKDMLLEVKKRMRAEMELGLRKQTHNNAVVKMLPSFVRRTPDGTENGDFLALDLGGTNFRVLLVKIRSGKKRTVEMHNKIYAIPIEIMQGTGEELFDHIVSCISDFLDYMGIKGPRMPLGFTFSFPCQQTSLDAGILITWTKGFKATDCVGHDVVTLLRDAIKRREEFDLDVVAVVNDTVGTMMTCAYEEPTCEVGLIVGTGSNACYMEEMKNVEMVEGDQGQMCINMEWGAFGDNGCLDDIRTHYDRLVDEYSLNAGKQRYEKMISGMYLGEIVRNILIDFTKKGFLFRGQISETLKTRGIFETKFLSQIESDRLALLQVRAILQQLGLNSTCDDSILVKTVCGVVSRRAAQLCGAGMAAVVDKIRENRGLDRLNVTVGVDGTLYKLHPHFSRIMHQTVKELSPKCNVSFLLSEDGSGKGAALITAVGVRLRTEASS", "experiment": "HK1 enzyme inhibition by HKDC1 hits, SAR follow-up, selectivity assay for HKDC1 inhibitor project, biochemical, set 2, resazurin fluorescence coupled readout (AID 588356)", "type": "functional"}, "[14]": {"target": "T4, Hexokinase HKDC1 (Homo sapiens, UniProt Q2TB90)", "T4 sequence (Q2TB90 whole entry)": "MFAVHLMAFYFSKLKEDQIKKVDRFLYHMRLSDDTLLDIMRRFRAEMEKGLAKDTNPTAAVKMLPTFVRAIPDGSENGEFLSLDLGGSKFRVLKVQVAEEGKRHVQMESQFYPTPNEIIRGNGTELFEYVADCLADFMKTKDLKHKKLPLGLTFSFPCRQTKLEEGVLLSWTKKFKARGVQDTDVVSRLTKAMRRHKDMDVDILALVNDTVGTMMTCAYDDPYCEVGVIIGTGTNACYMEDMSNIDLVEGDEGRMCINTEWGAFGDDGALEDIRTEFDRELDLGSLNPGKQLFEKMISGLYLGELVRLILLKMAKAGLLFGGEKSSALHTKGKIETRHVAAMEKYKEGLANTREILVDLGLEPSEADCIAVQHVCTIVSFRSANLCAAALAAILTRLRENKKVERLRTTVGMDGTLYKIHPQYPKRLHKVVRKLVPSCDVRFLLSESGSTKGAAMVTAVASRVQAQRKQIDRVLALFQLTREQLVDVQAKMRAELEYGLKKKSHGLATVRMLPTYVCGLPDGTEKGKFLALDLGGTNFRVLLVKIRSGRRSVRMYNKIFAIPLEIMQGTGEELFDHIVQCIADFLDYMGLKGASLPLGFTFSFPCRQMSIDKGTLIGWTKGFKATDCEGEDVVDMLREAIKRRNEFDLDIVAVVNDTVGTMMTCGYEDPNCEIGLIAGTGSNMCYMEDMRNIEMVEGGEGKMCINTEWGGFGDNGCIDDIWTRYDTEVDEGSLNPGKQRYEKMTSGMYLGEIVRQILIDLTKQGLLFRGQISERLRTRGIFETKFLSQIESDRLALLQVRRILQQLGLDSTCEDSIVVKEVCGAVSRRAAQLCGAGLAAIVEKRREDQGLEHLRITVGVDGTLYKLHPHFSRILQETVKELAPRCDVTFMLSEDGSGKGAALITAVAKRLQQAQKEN", "experiment": "HKDC1 hexokinase inhibitors, SAR follow-up, biochemical, set 2 (AID 588355)", "type": "functional"}, "[15]": {"experiment": "growth suppression of beta-catenin-knockout colon cells, dose response, cell-based, HCT116, human colon tumor (AID 1045);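 further: cells exposed to compound for 60 hours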", "type": "functional"}, "[16]": {"experiment": "growth suppression of PTEN-null colon cells, dose response, cell-based, HCT116 PTEN knockout (AID 1047);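 further: cells exposed to compound for 60 hours before readout; potency for loss of cell viability measured by luminescence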", "type": "functional"}, "[17]": {"experiment": "cytotoxicity in HMLE control line with eGFP shRNA, dose response, counter-screen for HMLE_sh_ECad selective toxicity project, cell-based, HMLE_sh_eGFP, luminescence (AID 463074);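 further: HMLE human mammary epithelial cells expressing control shRNA against eGFP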", "type": "functional, Homo sapiens"}, "[18]": {"experiment": "Luminescence Cell-Based Dose Retest to Confirm Inhibitors of Cancer Stem Cells. [Related pubchem assays (depositor defined):AID2717, AID2721]", "type": "functional", "details": "Homo sapiens"}}, "note": "Activity calls are given as the source filed them."}
{"smiles": "c1ccc(CSc2ncnc3c2sc2nc(N4CCOCC4)c4c(c23)CCCC4)cc1", "values": [{"measurement": "EC50", "setting": "[1]", "value": "18.6 µM (not active)"}, {"measurement": "EC50", "setting": "[2]", "value": "> 79.4 µM (not active)"}, {"measurement": "AC50", "setting": "[3]", "value": "inconclusive"}, {"measurement": "AC50", "setting": "[4]", "value": "inconclusive"}, {"measurement": "AC50", "setting": "[5]", "value": "1.12 µM (inconclusive)"}, {"measurement": "EC50", "setting": "[6]", "value": "> 79.4 µM (not active)"}]}
{"smiles": "C[C@@H]1O[C@@H](OC[C@H]2O[C@@H](Oc3cc(O)c4c(=O)cc(-c5ccc(O)c(O)c5)oc4c3)[C@H](O)[C@@H](O)[C@@H]2O)[C@H](O)[C@H](O)[C@H]1O", "values": [{"measurement": "IC50", "setting": "[7]", "value": "14.7 µM (active)"}, {"measurement": "AC50", "setting": "[8]", "value": "2.86 µM (active)"}, {"measurement": "IC50", "setting": "[9]", "value": "6.84 µM (active)"}, {"measurement": "IC50", "setting": "[10]", "value": "42.7 µM (active)"}, {"measurement": "AC50", "setting": "[11]", "value": "2.82 µM (active)"}, {"measurement": "AC50", "setting": "[12]", "value": "15.8 µM (active)"}]}
{"smiles": "CCc1ccc(NC2c3ccccc3C(=O)N2c2ccccc2C)cc1", "note": "(stereo not drawn)", "values": [{"measurement": "IC50", "setting": "[13]", "value": "> 80 µM (inactive)"}, {"measurement": "IC50", "setting": "[14]", "value": "> 80 µM (inactive)"}]}
{"smiles": "Cc1nn(Cc2ccc(Cl)cc2)c(Cl)c1/C=N/NC(=O)CNc1ccccc1F", "values": [{"measurement": "EC50", "setting": "[15]", "value": "18 µM (active)"}, {"measurement": "EC50", "setting": "[16]", "value": "15.8 µM (active)"}, {"measurement": "AC50", "setting": "[17]", "value": "24.9 µM (active)"}, {"measurement": "AC50", "setting": "[18]", "value": "16.2 µM (active)"}]}
